The record followed here is the METLIN SMRT retention time set (Domingo-Almenara et al. 2019).

The nature of the data set: gradient 5% acetonitrile 3 min, to 50% in 2 min, to 85% in 15 min, held 3 min, 100 µL/min. The conditions noted are these: column: Zorbax Extend-C18 2.1 x 50 mm; eluents: water / acetonitrile, 0.1% formic acid. In outline:
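Retention time was recorded from adduct peaks, which were picked computationally and each inspected manually. Pure standards ran in mixtures of ~100 molecules on HPLC coupled to a quadrupole time-of-flight mass spectrometer, in positive and negative ionization mode, through a Zorbax Extend-C18 column (2.1 × 50 mm, 1.8 μm) at 100 μL/min. Eluents were water and acetonitrile, each with 0.1% formic acid.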
`CCCn1nc(C)cc1CN(C)C(=O)c1cn2ccccc2n1` came in with an RP-LC retention time of 591 s. In the case of `O=C(Cc1ccsc1)Nc1ccc(N2CCN(c3ccccc3)C2=O)nc1` it was 811 s; in that of `CC(=O)c1cccc(NC(=O)c2cccc3ccccc23)c1`, 840 s; in that of `O=C(NC1CC1)c1cccc(OCC2CCCN(C(=O)C3CCCO3)C2)c1` (stereo not drawn), 689 s. On to `COc1ccc(OC)c(NC(=O)C2CCCN2S(=O)(=O)c2cc3c(cc2C)NC(=O)CO3)c1` (stereo not drawn), for which the RP-LC retention time was found to be 772 s.

Compound `CCCN(C)c1nccn2c(=O)n(CC(=O)Nc3cccc(Cl)c3)nc12` yielded an RP-LC retention time of 724 s. The same measure for `CCn1c(CCC(=O)NCc2ccccc2OC)nc2ccc(C)cc2c1=O`: 817 s; for `COc1ccc(N2CCN(C(=S)Nc3ccc4nc(N5CCN(C)CC5)cc(C)c4c3)CC2)cc1`: 580 s. In the case of `CCCCN(C)C(=O)c1ccc2c(c1)nc1n2CCN(C2CCCCC2)C1=O` it was 786 s; in that of `CCCCCn1c(=O)c2ccccc2n(Cc2nc(-c3ccc(SC)cc3)no2)c1=O`, 1290 s.

The compound `COc1ccc(S(=O)(=O)Nc2ccc(-c3cn4ccc(C)nc4n3)cc2)cc1OC` showed an RP-LC retention time of 627 s. In the case of `CCOC(=O)C1CCCN(C(=O)Cc2cc(-c3ccc(F)cc3)on2)C1` (stereo not drawn) it was 820 s. The same measure for `CCc1ccc(CNC(=O)C2Cc3cc(S(=O)(=O)N4CCCCC4)ccc3N2C(C)=O)cc1` (stereo not drawn): 983 s; for `CCOc1ccc(Cl)cc1S(=O)(=O)N1CCC(C(=O)N2CCCC2)CC1`: 820 s; for `CCOC(=O)c1c(S(=O)(=O)N2CCC(C(=O)Nc3ccc(OCC)cc3)CC2)c(C)n(C)c1C`: 853 s.

`CC1(C)CC2CC(C)(CN2c2ncnc(N)c2[N+](=O)[O-])C1` (stereo not drawn) gave an RP-LC retention time of 867 s. The same measure for `Cn1ncc2c3ccccc3n(CC(=O)N3CCN(c4ccc(F)cc4)CC3)c2c1=O`: 875 s; for `COc1ccc(-n2nnc(C(=O)O)c2-c2ccccc2)cc1OC`: 691 s; for `CCn1cnc(S(=O)(=O)N2CCC(C(=O)Nc3ccc(OC)c(OC)c3)CC2)c1`: 704 s. In the case of `CCCCNC(=O)COc1c(C)cc(Br)cc1C` it was 1000 s; in that of `CCOc1ccc(NC(=O)Cn2nc3c(N4CCSCC4)nccn3c2=O)cc1`, 816 s; in that of `O=C(Cn1nc2nc(N3CCCC3)ccn2c1=O)N1CCN(c2ccccc2F)CC1`, 691 s. `Oc1ccccc1-n1c(-c2ccccc2)ccc1-c1ccccc1` gave an RP-LC retention time of 1190 s. The compound `COc1ccc(C)cc1NC(=O)Cc1csc2nc(-c3cccc(Br)c3)cn12` showed an RP-LC retention time of 1060 s. The same measure for `CCCc1ccc(S(=O)(=O)N2CCc3c(c(-c4nnc(-c5ccc(F)cc5)o4)nn3C)C2)cc1`: 1070 s.

In the case of `CN(C)c1ccc(NC(=O)Cn2c(=O)cc(-c3nc(C4CC4)no3)c3ccccc32)cc1`, the RP-LC retention time is 697 s. In the case of `CC(=O)Nc1ccc(-c2noc(C3CCN(C(=O)c4ccc5cc[nH]c5c4)CC3)n2)cc1` it was 737 s; in that of `Nc1nccn(Cc2ccc(F)cc2F)c1=O`, 577 s. With `Cc1ccc(-c2noc(C3CCCN3C(=O)c3ccc(C(C)(C)C)cc3)n2)cc1` (stereo not drawn), the RP-LC retention time came out at 1280 s.

Take `CCn1c(=O)sc2cc(S(=O)(=O)N3CCC(C(=O)Nc4ccc(F)c(Cl)c4)CC3)ccc21`: the RP-LC retention time is 1010 s.

Compound `CCc1noc(NC(C)=O)c1-c1ccc(C)c(S(=O)(=O)NCc2ccccc2Cl)c1` showed an RP-LC retention time of 914 s. The same measure for `CCOC(=O)c1sc(NC(=O)CCCC(=O)O)nc1-c1ccccc1`: 770 s.

`O=c1ccc(-c2ccccc2Br)nn1Cc1nc(-c2ccc3c(c2)OCO3)no1`: the RP-LC retention time turned out to be 1040 s. The same measure for `Cc1nc(-c2noc(-c3cccc(F)c3)n2)cn1CC(=O)Nc1cccc(F)c1`: 889 s; for `CC(C)NC(=O)C1CCN(c2nc3ccc(-c4ccc(F)cc4)nc3s2)CC1`: 752 s.

The compound `CCCN1CCN(CCNC(=O)C2CCCN(c3ncc(-c4ccccc4)cn3)C2)CC1` (stereo not drawn) displayed an RP-LC retention time of 639 s. The same measure for `O=S(=O)(c1cc(F)ccc1F)N1CCc2nc(-c3ccc(F)cc3)ncc2C1`: 1100 s; for `Cn1c(=O)c2cc(C(=O)Nc3ccc(F)cc3)cnc2n(-c2ccc(F)cc2)c1=O`: 960 s; for `CCCNC(=O)C1CCCN(c2nc3ccsc3c(=O)n2-c2cccc(OC)c2)C1` (stereo not drawn): 735 s. In the case of `COC1CCN(C(=O)NC(C)C)CC1`, the RP-LC retention time was 599 s. The same measure for `COc1ccccc1OCc1nn2c(CSc3ccccc3)nnc2s1`: 882 s; for `O=C1[C@H](Cc2ccc(O)cc2)N2C(=O)CCN(C(=O)NCc3ccccc3)[C@H]2CN1Cc1cccc2ccccc12`: 847 s. The same measure for `Cn1cccc1C(CNC(=O)Nc1ccc(Cl)c(Cl)c1)N1CCOCC1` (stereo not drawn): 601 s.

As for `CCC(=O)N(C)CCc1noc(-c2ccc(C(=O)NC3CCCCCC3)cc2)n1`, the RP-LC retention time was 794 s. The same measure for `CCS(=O)(=O)N1CC(F)(F)C[C@H]1c1nnc(-c2ccccc2)o1`: 824 s; for `O=C(c1cccs1)N1CCN(Cc2ccc(=O)n(CC3CC3)c2)CC1`: 480 s. In the case of `O=S(=O)(CCc1noc(-c2ccc3cc[nH]c3c2)n1)c1ccccc1` it was 912 s.

The compound `O=C(Cn1cnc2nc3c(cc2c1=O)CCCC3)Nc1cccc(F)c1` gave an RP-LC retention time of 721 s. The same measure for `CCc1ccc(N2C=NS(=O)(=O)c3cccnc32)cc1`: 853 s; for `CCN(CC)S(=O)(=O)c1c(C)[nH]c(=O)[nH]c1=O`: 578 s. In the case of `COC(=O)c1ccc(C(=O)Nc2ccncc2NC(=O)c2ccc(C(=O)OC)cc2)cc1` it was 646 s; in that of `Cc1ccc(Nc2c(C(=O)N3CCC(C)CC3)cnc3nc(C)ccc23)c(C)c1`, 674 s. The compound `Cc1ccc(C)c(CN2CCC(CNC(=O)c3c(C)oc4c3C3=NCCN3C=N4)CC2)c1` yielded an RP-LC retention time of 561 s. On to `COc1ccc(N2CC(c3noc(-c4cc(OC)c(OC)c(OC)c4)n3)CC2=O)cc1OC` (stereo not drawn), for which the RP-LC retention time is 813 s. In the case of `COc1ccccc1C(CNC(=O)c1cc(=O)c2cc(C)c(C)cc2o1)N(C)C` (stereo not drawn) it was 651 s. The same measure for `COC(=O)C(C)n1nc2nc(Nc3ccc(C)c(F)c3)cc(C)n2c1=O` (stereo not drawn): 1100 s; for `Cc1ccc(S(=O)(=O)Nc2cncc(C(=O)O)c2)cc1`: 614 s; for `CCOc1ccc(S(=O)(=O)N2CCC(C(=O)NCCc3ccc(OC)c(OC)c3)CC2)cc1C`: 901 s.

`CCOC(=O)c1cc(S(=O)(=O)N2CCCC2C(=O)Nc2cccc(C)n2)cn1C` (stereo not drawn) yielded an RP-LC retention time of 847 s. The same measure for `CCC1CCCCN1C(=O)c1cnc2nc(C)ccc2c1Nc1ccc(C)c(F)c1` (stereo not drawn): 716 s; for `COc1ccc(CCN2C(=O)C(NC(=O)C3CC3)(C(F)(F)F)C3=C2CC(C)(C)CC3=O)cc1OC` (stereo not drawn): 847 s. The same measure for `CN(C)C(=O)c1csc(S(=O)(=O)N2CCC(C(=O)NC3CCCC3)CC2)c1`: 696 s. `CCCn1nc(CNC(=O)c2ccsc2)c2ccccc21`: the RP-LC retention time came to 825 s. In the case of `CSc1ccc(-c2nc3ccc(C)cn3c2Nc2ccccc2C)cc1` it was 795 s.

Take `CCN(CC)C(=O)CS(=O)Cc1cnn(-c2ccccc2)c1-n1cccc1` (stereo not drawn): the RP-LC retention time came to 754 s. The same measure for `Cc1ccc2nc(N3CCNCC3)c(-c3noc(-c4ccccc4)n3)cc2c1`: 770 s; for `Cc1cc(N2CCN(S(=O)(=O)c3cc(F)ccc3F)CC2)nc(N2CCCC2)n1`: 717 s.

As to `O=C(C1=NN(Cc2ccccc2F)c2cc(Cl)ccc2S1(=O)=O)N1CCOCC1`, the RP-LC retention time amounted to 833 s.

For `CNC(=O)c1noc([C@@H]2CC(F)(F)CN2C(=O)c2cccn2C)n1`, the RP-LC retention time is 712 s. The same measure for `COc1cc(=O)n2c(c1C(=O)Nc1cccc(SC)c1)CCCC2`: 734 s.

As for `CC1(C)CCC[C@@](C)([C@H]2CC[C@]3(C)[C@@H]2[C@H](O)C[C@@H]2[C@@]4(C)CC[C@H](O)C(C)(C)[C@@H]4[C@@H](O)C[C@]23C)O1`, the RP-LC retention time is 1150 s. In the case of `COC(=O)c1ccc2c(c1)nnn2Cc1ccc(F)cc1` it was 916 s. In the case of `CC(C)CCNC(=O)NCCn1nnc2cc(C(=O)N3CCCC3)ccc21` it was 657 s; in that of `O=C(Nc1ccc2c(c1)OCCO2)C1CCN(c2cc(N3CCCC3)ncn2)CC1`, 630 s; in that of `COc1cc(-c2nc(-c3ccc4c(c3)oc(=O)n4C)no2)cc(OC)c1OC`, 985 s. In the case of `Cc1onc(-c2c(Cl)cccc2Cl)c1C(=O)N1CCN(C)CC1` it was 609 s; in that of `CC(C)S(=O)(=O)N1CC(Oc2ccccc2-c2nc(C3CC3)no2)C1`, 984 s; in that of `CCCNC(=O)c1ccc2nc(CCc3ccc(NC(=O)C(C)C)cc3)[nH]c2c1`, 617 s.
